Publication PMC6130205 (Journal of medicinal chemistry, 2018)

What was measured:
Format in all cases: biochemical
SIRT1 [1] = molecular target: T1, SIRT1 (Homo sapiens, UniProt Q96EB6); assay: fluorometric substrate cleavage
T1 sequence (Q96EB6 2-747): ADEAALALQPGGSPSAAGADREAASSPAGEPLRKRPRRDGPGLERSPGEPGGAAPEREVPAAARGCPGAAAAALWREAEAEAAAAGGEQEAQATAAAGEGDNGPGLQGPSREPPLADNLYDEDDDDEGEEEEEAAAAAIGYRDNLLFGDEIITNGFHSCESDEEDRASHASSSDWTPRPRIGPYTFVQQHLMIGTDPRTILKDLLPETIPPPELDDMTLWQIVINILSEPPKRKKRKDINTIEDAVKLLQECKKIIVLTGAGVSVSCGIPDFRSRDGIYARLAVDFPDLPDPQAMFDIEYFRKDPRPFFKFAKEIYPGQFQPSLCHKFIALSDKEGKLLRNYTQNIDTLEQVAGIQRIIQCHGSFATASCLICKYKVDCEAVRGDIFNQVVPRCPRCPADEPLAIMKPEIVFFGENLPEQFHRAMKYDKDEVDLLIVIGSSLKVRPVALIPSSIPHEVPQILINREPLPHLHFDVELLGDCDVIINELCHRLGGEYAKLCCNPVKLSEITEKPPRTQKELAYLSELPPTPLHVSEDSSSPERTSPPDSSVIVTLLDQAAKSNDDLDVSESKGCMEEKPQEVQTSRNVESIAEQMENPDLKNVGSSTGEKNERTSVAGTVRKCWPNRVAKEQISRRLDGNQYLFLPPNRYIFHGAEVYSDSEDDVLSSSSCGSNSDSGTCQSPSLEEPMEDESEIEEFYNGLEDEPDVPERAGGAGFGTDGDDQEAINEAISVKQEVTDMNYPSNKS

SIRT1 [2] = molecular target: T1, SIRT1; assay: fluorometric substrate cleavage kinetics
SIRT1 [3] = molecular target: T1, SIRT1; assay: in vitro SIRT1 reaction monitored by […] NMR

fluorometric substrate cleavage (Kcat) (SIRT1 [1]) | fluorometric substrate cleavage kinetics (Kcat/Km) (SIRT1 [2]) [M⁻¹ s⁻¹] | SMILES | further results
(0.41 ± 0.014) × 10^−3 s^−1 |  | Cc1cc(=O)oc2cc(NC(=O)[C@H](CCCCNC(=O)c3ccccc3)NC(=O)OCc3ccccc3)ccc12 [compound 1, Benzyl (6-Benzamido-1-((4-methyl-2-oxo-2H-chromen-7-yl)-amino)-1-oxohexan-2-yl)carbamate] | 
 | 26.02 ± 7.07 | Cc1cc(=O)oc2cc(NC(=O)[C@H](CCCCNC(=O)c3ccccc3F)NC(=O)OCc3ccccc3)ccc12 [compound 2, Benzyl (6-(2-Fluorobenzamido)-1-((4-methyl-2-oxo-2H-chromen-7-yl)amino)-1-oxohexan-2-yl)carbamate] | 
 | 63.39 ± 4.32 | Cc1cc(=O)oc2cc(NC(=O)[C@H](CCCCNC(=O)c3cccc(F)c3)NC(=O)OCc3ccccc3)ccc12 [compound 3, Benzyl (6-(3-Fluorobenzamido)-1-((4-methyl-2-oxo-2H-chromen-7-yl)amino)-1-oxohexan-2-yl)carbamate] | 
 | 16.08 ± 1.32 | Cc1cc(=O)oc2cc(NC(=O)[C@H](CCCCNC(=O)c3ccc(F)cc3)NC(=O)OCc3ccccc3)ccc12 [compound 4, Benzyl (6-(4-Fluorobenzamido)-1-((4-methyl-2-oxo-2H-chromen-7-yl)amino)-1-oxohexan-2-yl)carbamate] | 
(0.37 ± 0.02) × 10^−3 s^−1 |  | Cc1cc(=O)oc2cc(NC(=O)[C@H](CCCCNC(=O)Cc3ccccc3)NC(=O)OCc3ccccc3)ccc12 [compound 7] | 
 |  | O=C(CCCCCNC(=O)c1ccccc1F)Nc1ccccc1 [compound 12, 2-FBzAHA] | in vitro SIRT1 reaction monitored by 19F NMR (SIRT1 [3]): The enzymatic cleavage of 2F-BzAHA by SIRT1 was validated using an in vitro SIRT1 enzyme assay

SMILES | fluorometric substrate cleavage (Kcat) (SIRT1 [1]) | fluorometric substrate cleavage kinetics (Kcat/Km) (SIRT1 [2]) [M⁻¹ s⁻¹] | further results
CCc1ccc(C(=O)NCCCC[C@H](NC(=O)OCc2ccccc2)C(=O)Nc2ccc3c(C)cc(=O)oc3c2)cc1 [compound 5, Benzyl (6-(4-Ethylbenzamido)-1-((4-methyl-2-oxo-2H-chromen-7-yl)amino)-1-oxohexan-2-yl)carbamate] | the 4-ethyl substitution increased the Kcat for SIRT1 but only minimally |  | 
